The values below come from US12201619B2, “Compounds and methods for use in the treatment of microglia-mediated disorders” (NSC Therapeutics GmbH, priority 2018, dated 2025).

In data set [1] the target is T1, human M1 mAChR (Homo sapiens, UniProt P11229).
T1 sequence (P11229 1-460): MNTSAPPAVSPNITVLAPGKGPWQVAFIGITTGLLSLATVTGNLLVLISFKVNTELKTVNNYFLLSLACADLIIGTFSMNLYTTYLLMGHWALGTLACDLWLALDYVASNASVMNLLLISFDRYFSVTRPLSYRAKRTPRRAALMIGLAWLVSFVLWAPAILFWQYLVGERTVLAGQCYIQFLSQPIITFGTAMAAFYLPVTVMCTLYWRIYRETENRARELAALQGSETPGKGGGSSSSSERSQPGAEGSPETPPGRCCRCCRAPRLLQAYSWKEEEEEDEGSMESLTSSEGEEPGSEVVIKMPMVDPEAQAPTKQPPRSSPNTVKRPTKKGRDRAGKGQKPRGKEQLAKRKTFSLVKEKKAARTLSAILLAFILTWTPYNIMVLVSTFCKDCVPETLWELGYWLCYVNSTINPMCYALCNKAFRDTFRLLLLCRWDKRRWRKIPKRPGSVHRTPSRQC
The data set can be described thus: cell-based. As to conditions: for calcium mobilization response relative to CCh: CHOM1 cells, 50 μM compound. How it is done:
Cells were routinely cultured in Dulbecco's Modified eagle medium (Gibco, UK) supplemented with 10% fetal bovine serum (FBS), 1×MEM non-essential amino-acid, […] Glutamine, 100μ/ml Penicillin, 0.1 mg/ml Streptomycin, 25 μg/ml Amphotericin B and 100 μg/ml G418 (Biological industries, Israel). Cells were kept in a humidified atmosphere at 37° C. in 5% CO2 and were passaged twice weekly by 2.5 mg/ml trypsin-EDTA (0.02%) solution (Biological industries, Israel) and re-suspended in fresh media.
Calcium fluorescence measurements were performed using a NOVOstar plate reader with an injector and a pipetting system (BMG Labtech, Ortenberg, Germany). At the day before the experiment Chinese Hamster Ovary (CHO) cells expressing human M1 mAChR subtypes (CHOM1) were harvested and rinsed with culture medium (see section “cell culture”, supra) without Phenol red and evenly plated into black-wall clear optical bottom 96-well plate (Nunc, Rochester NY, USA) at a density of 40,000 cells/well. Growth medium was removed and 80 μl of loading buffer, containing 2.5 mM probenecid, was carefully added (loading buffer prepared according to FLUO-4 NW calcium assay kit manual). The cell plate was incubated at 37° C. for 30 minutes; then at room temperature for an additional 30 minutes. EGTA (10 μl of 50 mM dissolved in HBSS) was added automatically to each well using the NOVOstar injector system followed by shaking of 1 minute (1 mm width, 600 rpm) and then incubated for another 10 minutes. HBSS alone or test compounds dissolved in HBSS were then added (10 μl) sequentially into separate wells using the NOVOstar robotic pipettor system. Fluorescence intensity was measured at 0.5 second intervals, for 30 second for each well, using an excitation wavelength of 485 nm (bandwidth 10 nm) and emission of 520 nm (bandwidth 10 nm), cut-off 515 nm. All assays were carried out in triplicates in three independent experiments. Competition curves and EC50 values were derived using the GraphPad Prism software program, version 3.0.
A general note: Calcium assays in cells follow changes in intracellular calcium, usually with a dye or a luminescent sensor.

Data set [2] has as its system human blood-derived macrophages. The data set can be described thus: Cell viability (PrestoBlue) of blood-derived human macrophages. The data set is classed as cell-based. As to conditions: for cell viability in regards to medium control: 0-24 h, 1-2000 μM for NSC001 and AF102B; for persistence of the cell viability effect: after 24 hours of treatment. The protocol:
Human blood-derived macrophages were isolated from buffy coat via standard protocols (Monocyte isolation Kit, 130091153, Miltenyi Biotec GmbH, Germany) and differentiated for 9 days in M-CSF medium (Ser. No. 12/065,074, Thermo Fisher, Switzerland,) supplemented with 125 ng/ml human GM-CSF (130093864, Miltenyi Biotec GmbH, Germany) to induce M1 macrophage differentiation. Upon differentiation, cells were harvested and re-seeded at 1 Mio cells per 24-well. […] Cell viability was detected by absorbance measurements utilizing the PrestoBlue colorimetric assay (PrestoBlue Cell Viability Reagent, A13261, Thermo Fisher, Switzerland). Cell viability was assessed directly after compound application at 0 h and after 1 h, 3 h and 24 h.

Data set [3] concerns TREM2 (sTREM2, tTREM2) in primary microglia. The data set can be described thus: Soluble and total TREM2 levels (ELISA) in primary microglia cultures. The note with it: for sTREM2 levels in medium: normalized to PMA 1 μM. The data set is classed as cell-based, mouse. How it is done:
Primary microglia were isolated from C57BL6 pups (P4-6). Mouse brains were prepared by removing the cerebellum and the meninges. Brain tissue was dissected and single cell suspension was sorted via CD11b Microbeads (Milteny Biotec) to obtain primary microglia. Cells were plated at 4×10^5 cell/ml in 24 well plates and cultured for 24 hours in DMEM supplemented with 10% FBS and 1% Penicillin/Streptomycin.
Mouse primary microglia were prepared from mice postnatal day 4-6 according to standard protocols (Neuronal Tissue Dissociation Kit (P), 130-092-628 and CD11b Microbeads, 130-093-634; Miltenyi Biotec 5 GmbH, Germany) and seeded in 24-well plates at a density of 4×10^5 cells/well. After one day, cell medium was removed and cells were washed once with PBS. Subsequently, cell were treated with compound NSC001 (0-2000 μM) in FBS-free DMEM for 1 or 24 hours. Termination of the assay was carried out by collecting the media and concomitant concentration via centrifugal filter units (Amicon, Z648027-24EA, Sigma 10 Aldrich, Ireland). Cell lysis was performed by adding RIPA lysis buffer (RIPA buffer, R0278, Sigma-Aldrich Co LLC, USA) followed by agitating the cells at 4° C. for 30 min. Primary microglia cell lysates and concentrated cell medium were analyzed for soluble TREM2 (sTREM2; FIG. 3A,B) and total TREM2 (tTREM2; FIG. 3C,D) levels by ELISA (CSBEL024405MO, Cusabio Life Science, China).

For data set [4], the target named is T1, human M1 mAChR. Kind of data set: Phosphoinositide (PI) hydrolysis in CHOM1 cells. The data set is classed as cell-based. Details: expressed in transfected cells; host or cells: CHO (Chinese Hamster Ovary) cells, CHOM1, kept under G418. The note with it: for Emax at 1000 µM: read-out: PI hydrolysis maximal response relative to CCh. The protocol: (§1) Rat pheochromocytoma cells (PC12) transfected with rat M1 muscarinic receptor (PC12M1) or CHOM1 cells were seeded in 24-well plates at a density of 4-8×10^5 cells/well. A day later, a fresh growth medium containing 1 μCi/ml [^3H]inositol (myo-[2-^3H(N)] 22 Ci/mmol; purchased from NEN, Boston, MA) was added for 18-24 h (overnight). Then, the medium was removed and the cells were washed twice followed by pre-incubation (10 min) with serum-free medium containing 20 mM Hepes pH 7.4 and 10 mM LiCl. […] Basal activity was determined in cells that were incubated in parallel without the tested compounds. Termination of the assay was carried out by aspirating the media and adding 0.5 ml 2% trichloroacetic acid (TCA) followed by agitating the cells in the cold for 30 min. The TCA extracts were transferred to anion-exchange columns, washed five times with 5 mM inositol, once with 5 ml 5 mM Na2B4O7 in 60 mM formic acid, and the total IPs were eluted with 3 ml 1 M NH4COOH in 0.1 M formic acid. The effluent was collected into scintillation vials and the radioactivity was measured using liquid scintillation counter, 1214 Rackbeta LKB Wallac.

The next data set concerns the target T2, M1 receptor (Homo sapiens, UniProt P11229).
T2 sequence (P11229 1-460): T1 sequence (P11229 1-460)
As to conditions: in vitro; cited from earlier work.

A further data set deals with AD patients. As to conditions: cited from earlier work.
The conditions of data set [5]: dry storage conditions; cited from earlier work.
A further data set has as its system 3×Tg-AD mice. As to conditions: cited from earlier work.
Data set [6] deals with T3, rat M1 muscarinic receptor (Rattus norvegicus, UniProt P08482).
T3 construct: expressed in transfected cells; host or cells: PC12 rat pheochromocytoma cells (PC12M1)
T3 sequence (P08482 1-460): T1 sequence (P11229 1-460) with A5V, T254S, P309S, R320K, A337G, I413V
The data set can be described thus: Phosphoinositide (PI) hydrolysis in PC12M1 cells. The data set is classed as cell-based. How it is done: as §1

Setting [7] is: 24 hours treatment, hydrochloride.
[8] abbreviates: 24 hours treatment, listed as AF267B.

Where a chain is given by its changes, count along the chain named. Entries after “also recorded” stand apart in the source; their conditions may differ.

As usually defined, the EC50 is the concentration needed to bring the measured effect to its halfway point. Higher therefore signals lower potency in that assay. For the compound `C[C@@H]1O[C@@]2(CS1)CN1CCC2CC1.Cl` (racemic) [AF102B, cis-2-Methylspiro[1,3-oxathiolane-5,3′-quinuclidine] hydrochloride, reference compound], at human M1 mAChR [1], a half-maximal effect (EC50) was put at 1680 ± 330 nM and the “calcium mobilization response relative to CCh” value is reported as 101%. The “cell viability in regards to medium control” value (shortened to “cell viability in regards”) in [2] (hydrochloride) is “increased; also recorded: increase in viability”. Further, in [2], the “persistence of the cell viability effect” value was “persisted”. Also, in data set [3] (setting [7]), the “sTREM2 levels in medium” value was “capable of inducing sTREM2 levels; also recorded: significantly enhances; also recorded: significantly increases” and the “cellular tTREM2 levels” value is on record as “not affected; also recorded: unaffected; also recorded: unaltered”. In addition, the “concentration at which the compound is active” value in [3] (features (i) to (iii): sTREM2 secretion, calcium mobilization and/or PI hydrolysis) was in the range of 10 to 100 µM. Besides, the Emax at 1000 µM on human M1 mAChR [4] came to 43%. Also, at M1 receptor, the Aβ levels entry was “decrease”, the Aβ-induced neurotoxicity result is listed as “block”, the tau hyperphosphorylation result was “decrease” and the αAPPs entry is “elevate”. In the data set with AD patients, the “levels of Aβ in the CSF” value is on record as “significantly decreased”.
With `CCO` [Ethanol], in [2], the “cell viability in regards” value is recorded as “reduced cell viability; also recorded: rapidly decreases cell viability”.
Take `CCC1SC2(CCN(C)CC2)NC1=O` (stereo not shown) [Form II]: the “stability of the crystalline form” value in data set [5] is reported as “highly stable under dry storage conditions for at least two years”.
With `CCCCCCCCCCCCCC(=O)O[C@@H]1[C@@H](C)[C@@]2(O)[C@@H](C=C(CO)C[C@]3(O)C(=O)C(C)=C[C@@H]23)[C@@H]2C(C)(C)[C@]12OC(C)=O` [PMA, Phorbol myristate acetate], in data set [2], the “cell viability in regards” value is on record as “increased” and the “persistence of the cell viability effect” value is on record as “reversed to baseline”.
Turning to `CC[C@@H]1SC2(CCN(C)CC2)NC1=O` [NSC001, (S)-2-ethyl-8-methyl-1-thia-4,8-diaza-spiro[4.5]decan-3-one], at human M1 mAChR [1], a half-maximal response (EC50) required 1840 ± 390 nM and the “calcium mobilization response relative to CCh” value stood at 113%. Moreover, in data set [2], the “cell viability in regards” value is reported as “increased; also recorded: increase in viability” and the “persistence of the cell viability effect” value is given as “persisted”. Moreover, in data set [3] (1 hour treatment), the “cellular tTREM2 levels” value is listed as “remained constant; also recorded: no effect” and the “sTREM2 levels in medium” value is “no alteration detected; also recorded: no effect”. In data set [3] (24 h, PMA 1 μM), the “concentration able to increase sTREM2 levels comparable to PMA” value is 1 µM. In addition, the “further increase in sTREM2 exceeding the levels upon PMA treatment (1 μM)” value in data set [3] (24 h, higher concentrations 100-2000 μM) is on record as “not observed”. In data set [3] (24 hours treatment), the “cellular tTREM2 levels” value is given as “remain constant” and the “sTREM2 levels in medium” value is “significant increase”. For the same compound, in [3] (setting [8]), the “sTREM2 levels in medium” value is recorded as “significantly increases” and the “cellular tTREM2 levels” value is “unaltered”. In addition, the “cellular tTREM2 levels” value in [3] (24 hours treatment, listed as NSC0001) is given as “not affected”. In addition, the “concentration at which the activity of features (i) to (iii) is displayed” value in data set [3] (sTREM2 secretion, calcium mobilization and/or PI hydrolysis) was in the range of 1 to 5 µM. The same compound returned a 50% effective concentration (EC50) on human M1 mAChR [4] (CHOM1 cells) of 19000 nM. In addition, the Emax at 1000 µM on human M1 mAChR [4] was 63 ± 1%. Moreover, on M1 receptor, the Aβ levels result is reported as “decrease”, the Aβ-induced neurotoxicity entry is listed as “block”, the tau hyperphosphorylation result is “decrease” and the αAPPs entry is listed as “increase”. Also, the spatial memory entry in the data set with 3×Tg-AD mice was “improve spatial memory”. Further, the “Aβ and tau pathologies” value with 3×Tg-AD mice (hippocampus and cortex) is recorded as “reduced”. Moreover, in data set [6], the “PI hydrolysis / M1 mAChR activation” value is recorded as “efficacious; also recorded: efficiently induces PI hydrolysis”.
